These results are taken from US9839642B2, “Beta-tetrazolyl-propionic acids as metallo-beta-lactamase inhibitors” (priority 2014, dated 2017).

Structures are written as SMILES.

Test [1] relates to Escherichia coli expressing NDM-1 (CLB30005). Briefly: Antibiotic potentiation activity: synergistic concentration (MITC95) with imipenem, growth by OD600. Type of test: cell-based. Conditions: 95% inhibition of bacterial growth, strain CLB30005. In outline: (§1)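 Strains grown overnight at 35° C, resuspended in saline, diluted 1:100 into 1.1×CAMHB; imipenem at 1 μg/ml or 4 μg/ml with test compound 200 μM to 0.195 μM. Incubated 22 hours to 24 hours at 35° C, OD600 read; MITC95 is lowest compound concentration inhibiting 95% of growth.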

The test system of test [2] is Klebsiella pneumoniae expressing VIM-1 (IHMA599644). The description is as above. Type of test: cell-based. The conditions noted are these: 95% inhibition of bacterial growth, strain IHMA599644. In outline: as §1
Test [3] has as its system Serratia marcescens expressing IMP-1 (CL5741). Described as above. The conditions noted are these: 95% inhibition of bacterial growth, strain CL5741. Type of test: cell-based. In short, it runs like this: as §1
In another test the target is IMP-1 (Serratia marcescens, UniProt P52699). Briefly: Enzyme activity: determination of IC50, fluorescence assay with CCF2-FA substrate. Type of test: biochemical. Conditions: enzyme 2 pM, CCF2-FA 1.25 μM, 2 hours at 25° C.; read-out: IMP1 IC50. In outline: (§2)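 Enzyme (1 pM NDM-1, 2 pM IMP-1, 30 pM VIM-1) incubated with inhibitor (20 to 0.00063 μM) and 1.25 μM CCF2-FA in 100 mM KH2PO4 pH 7, 0.005% Tween-20, 10 μM ZnSO4, 2 h at 25 °C. Fluorescence read at 460 nm (ex 405 nm); IC50 by 4-parameter fit.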
Sequence of IMP-1 (P52699 19-246, looked up, species assumed): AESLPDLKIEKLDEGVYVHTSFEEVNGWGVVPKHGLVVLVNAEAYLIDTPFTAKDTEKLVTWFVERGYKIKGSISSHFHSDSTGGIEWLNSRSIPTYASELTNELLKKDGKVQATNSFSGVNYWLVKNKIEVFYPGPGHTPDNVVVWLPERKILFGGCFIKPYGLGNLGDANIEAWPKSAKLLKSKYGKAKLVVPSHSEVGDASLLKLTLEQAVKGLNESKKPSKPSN

For another test, the target named is NDM-1 (Klebsiella pneumoniae, UniProt C7C422). Described as above. Conditions: enzyme 1 pM, CCF2-FA 1.25 μM, 2 hours at 25° C.; read-out: NDM1 IC50. Type of test: biochemical. In short, it runs like this: as §2
Sequence of NDM-1 (C7C422 29-270, looked up, species assumed): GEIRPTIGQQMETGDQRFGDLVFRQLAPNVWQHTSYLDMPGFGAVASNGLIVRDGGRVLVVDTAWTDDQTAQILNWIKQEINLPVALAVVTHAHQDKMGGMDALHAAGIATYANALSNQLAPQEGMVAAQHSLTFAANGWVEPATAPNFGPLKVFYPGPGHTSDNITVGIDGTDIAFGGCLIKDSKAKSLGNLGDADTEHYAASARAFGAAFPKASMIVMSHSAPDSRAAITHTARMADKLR
The target in another test is VIM-1 (Pseudomonas aeruginosa, UniProt A0A0F7KYQ8). Described as above. Type of test: biochemical. Conditions: enzyme 30 pM, CCF2-FA 1.25 μM, 2 hours at 25° C.; read-out: VIM1 IC50. In short, it runs like this:
as §2

As usually defined, the IC50 is the concentration that gives 50% inhibition. As for `CCC[C@H](C(=O)O)[C@H](Cc1ccc(-c2ccncc2)cc1)c1nn[nH]n1` [Example 198, (2S)-2-[(1S)-2-(4-pyridin-4-ylphenyl)-1-(2H-tetrazol-5-yl)ethyl]pentanoic acid], the “NDM1 EC30005 MITC95” value in test [1] was 6.2 µM. Further, in test [2], the “VIM1 KP599644 MITC95” value was 18.8 µM. In addition, the “IMP1 SM5741 MITC95” value in test [3] was found to be 6.2 µM. Further, the IC50 at IMP-1 amounted to 75 nM; at NDM-1 it was 14 nM; at VIM-1 it was 1.2 nM.
With `CCC[C@H](C(=O)O)[C@H](Cc1ccc(-c2ccc(N)nc2)cc1)c1nn[nH]n1` [Example 200, (2S)-2-[(1S)-2-[4-(6-aminopyridin-3-yl)phenyl]-1-(2H-tetrazol-5-yl)ethyl]pentanoic acid], in test [1], the “NDM1 EC30005 MITC95” value was 4.7 µM. For the same compound, the “VIM1 KP599644 MITC95” value in test [2] came to 18.8 µM. For the same compound, the “IMP1 SM5741 MITC95” value in test [3] is 9.4 µM. Besides, the concentration for half-maximal inhibition (IC50) is 34 nM on IMP-1, 8.1 nM at NDM-1 and 1.5 nM at VIM-1.
As for `CCC[C@H](C(=O)O)[C@H](Cc1ccc(-c2cccc(C(N)=O)c2)cc1)c1nn[nH]n1` [Example 201, (2S)-2-[(1S)-2-(3′-carbamoylbiphenyl-4-yl)-1-(2H-tetrazol-5-yl)ethyl]pentanoic acid], the “NDM1 EC30005 MITC95” value in test [1] turned out to be 7.8 µM. Besides, the “VIM1 KP599644 MITC95” value in test [2] worked out at 62 µM. Besides, the “IMP1 SM5741 MITC95” value in test [3] turned out to be 12.5 µM. Also, the IC50 on IMP-1 was 29 nM; on NDM-1, 9 nM; on VIM-1, 2.1 nM.
For the compound `CCC[C@H](C(=O)O)[C@H](Cc1ccc(-c2ccc(C(=O)NC)cc2)cc1)c1nn[nH]n1` [Example 202, (2S)-2-[(1S)-2-[4′-(methylcarbamoyl)biphenyl-4-yl]-1-(2H-tetrazol-5-yl)ethyl]pentanoic acid], the “NDM1 EC30005 MITC95” value in test [1] turned out to be 9.4 µM. For the same compound, in test [2], the “VIM1 KP599644 MITC95” value is 50 µM. For the same compound, the “IMP1 SM5741 MITC95” value in test [3] worked out at 4.7 µM. In addition, the 50% inhibitory concentration (IC50) at IMP-1 was 22 nM; on NDM-1 it was 5.9 nM; at VIM-1 it was 2.3 nM.
With `CCC[C@H](C(=O)O)[C@H](Cc1ccc(-c2ccc(N3CCOCC3)nc2)cc1)c1nn[nH]n1` [Example 203, (2S)-2-[(1S)-2-[4-(6-morpholin-4-ylpyridin-3-yl)phenyl]-1-(2H-tetrazol-5-yl)ethyl]pentanoic acid], the “NDM1 EC30005 MITC95” value in test [1] was determined as 9.4 µM. Moreover, the “VIM1 KP599644 MITC95” value in test [2] turned out to be 200 µM. Moreover, the “IMP1 SM5741 MITC95” value in test [3] came out at 9.4 µM. For the same compound, the figures for the IC50 at IMP-1, on NDM-1 and on VIM-1 were 60 nM, 14 nM and 4.3 nM, respectively.
`CCC[C@H](C(=O)O)[C@H](Cc1ccc(-c2cnc(N3CCCCC3)s2)cc1)c1nn[nH]n1` [Example 204, (2S)-2-[(1S)-2-[4-(2-piperidin-1-yl-1,3-thiazol-5-yl)phenyl]-1-(2H-tetrazol-5-yl)ethyl]pentanoic acid]: in test [1], the “NDM1 EC30005 MITC95” value was 3.9 µM. Besides, the “VIM1 KP599644 MITC95” value in test [2] turned out to be 100 µM. For the same compound, in test [3], the “IMP1 SM5741 MITC95” value was 4.7 µM. Further, the IC50 was found to be 26 nM on IMP-1, 3.4 nM on NDM-1 and 2.1 nM at VIM-1.
Consider `CCC[C@H](C(=O)O)[C@H](Cc1ccc(-c2ccccc2CN2CCCCC2)cc1)c1nn[nH]n1` [Example 205, (2S)-2-[(1S)-2-[2′-(piperidin-1-ylmethyl)biphenyl-4-yl]-1-(2H-tetrazol-5-yl)ethyl]pentanoic acid], for which the “NDM1 EC30005 MITC95” value in test [1] amounted to 50 µM. For the same compound, in test [2], the “VIM1 KP599644 MITC95” value was greater than 200 µM. For the same compound, the “IMP1 SM5741 MITC95” value in test [3] is 7.8 µM. Besides, the figures for the IC50 on IMP-1, on NDM-1 and at VIM-1 were 63 nM, 500 nM and 360 nM, respectively.
`CCC[C@H](C(=O)O)[C@H](Cc1ccc(-c2cccc(CN3CCCCC3)c2)cc1)c1nn[nH]n1` [Example 206, (2S)-2-[(1S)-2-[3′-(piperidin-1-ylmethyl)biphenyl-4-yl]-1-(2H-tetrazol-5-yl)ethyl]pentanoic acid]: the “NDM1 EC30005 MITC95” value in test [1] stood at 18.8 µM. Further, in test [2], the “VIM1 KP599644 MITC95” value came to 50 µM. In test [3], the “IMP1 SM5741 MITC95” value came out at 18.8 µM. For the same compound, the IC50 on IMP-1 is 130 nM; at NDM-1, 82 nM; on VIM-1 it was 7.2 nM.
As to `CCC[C@H](C(=O)O)[C@H](Cc1ccc(-c2cccc(CN3CCOCC3)c2)cc1)c1nn[nH]n1` [Example 207, (2S)-2-[(1S)-2-[3′-(morpholin-4-ylmethyl)biphenyl-4-yl]-1-(2H-tetrazol-5-yl)ethyl]pentanoic acid], the “NDM1 EC30005 MITC95” value in test [1] stood at 16 µM. Besides, the “VIM1 KP599644 MITC95” value in test [2] was 150 µM. The “IMP1 SM5741 MITC95” value in test [3] was found to be 16 µM. Moreover, the IC50 was 100 nM on IMP-1, 64 nM on NDM-1 and 8 nM at VIM-1.
Take `CCC[C@H](C(=O)O)[C@H](Cc1ccc(-c2csc(N3CCOCC3)n2)cc1)c1nn[nH]n1` [Example 208, (2S)-2-[(1S)-2-[4-(2-morpholin-4-yl-1,3-thiazol-4-yl)phenyl]-1-(2H-tetrazol-5-yl)ethyl]pentanoic acid]: the “NDM1 EC30005 MITC95” value in test [1] is 25 µM. Further, the “VIM1 KP599644 MITC95” value in test [2] was 200 µM. The “IMP1 SM5741 MITC95” value in test [3] worked out at 18.8 µM. In addition, the 50% inhibitory concentration (IC50) on IMP-1 was determined as 100 nM; on NDM-1 it was 61 nM; at VIM-1 it was 16 nM.
As for `CCC[C@H](C(=O)O)[C@H](Cc1ccc(-c2cccc(CN)c2)cc1)c1nn[nH]n1` [Example 210, (2S)-2-[(1S)-2-[3′-(aminomethyl)biphenyl-4-yl]-1-(2H-tetrazol-5-yl)ethyl]pentanoic acid], in test [1], the “NDM1 EC30005 MITC95” value was determined as 6.2 µM. Further, the “VIM1 KP599644 MITC95” value in test [2] was found to be 18.8 µM. In test [3], the “IMP1 SM5741 MITC95” value is 12.5 µM. Besides, the 50% inhibitory concentration (IC50) stood at 130 nM at IMP-1, 100 nM on NDM-1 and 8.2 nM at VIM-1.
Regarding `CCC[C@H](C(=O)O)[C@H](Cc1ccc(-c2ccc(CO)cc2)cc1)c1nn[nH]n1` [Example 211, (2S)-2-[(1S)-2-[4′-(hydroxymethyl)biphenyl-4-yl]-1-(2H-tetrazol-5-yl)ethyl]pentanoic acid], the “NDM1 EC30005 MITC95” value in test [1] is 3.1 µM. Also, the “VIM1 KP599644 MITC95” value in test [2] came out at 25 µM. The “IMP1 SM5741 MITC95” value in test [3] amounted to 2.3 µM. The figures for the IC50 on IMP-1, on NDM-1 and on VIM-1 were 20 nM, 12 nM and 3.4 nM, respectively.
On to `CCC[C@H](C(=O)O)[C@H](Cc1ccc(-c2cn(C)c(=O)n(C)c2=O)cc1)c1nn[nH]n1` [Example 212, (2S)-2-[(1S)-2-[4-(1,3-dimethyl-2,4-dioxo-1,2,3,4-tetrahydropyrimidin-5-yl)phenyl]-1-(2H-tetrazol-5-yl)ethyl]pentanoic acid], for which the “NDM1 EC30005 MITC95” value in test [1] came to 18.8 µM. In test [2], the “VIM1 KP599644 MITC95” value was 150 µM. For the same compound, in test [3], the “IMP1 SM5741 MITC95” value turned out to be 18.8 µM. For the same compound, the IC50 came out at 91 nM on IMP-1, 31 nM at NDM-1 and 15 nM on VIM-1.
As for `CCC[C@H](C(=O)O)[C@H](Cc1ccc(-c2ccc(C(C)(C)O)nc2)cc1)c1nn[nH]n1` [Example 213, (2S)-2-[(1S)-2-{4-[6-(1-hydroxy-1-methylethyl)pyridin-3-yl]phenyl}-1-(2H-tetrazol-5-yl)ethyl]pentanoic acid], in test [1], the “NDM1 EC30005 MITC95” value turned out to be 9.4 µM. The “VIM1 KP599644 MITC95” value in test [2] came out at 75 µM. The “IMP1 SM5741 MITC95” value in test [3] came out at 18.8 µM. Moreover, the 50% inhibitory concentration (IC50) worked out at 120 nM at IMP-1, 28 nM at NDM-1 and 17 nM at VIM-1.
As to `CCC[C@H](C(=O)O)[C@H](Cc1ccc(-c2ccccc2CN2CCOCC2)cc1)c1nn[nH]n1` [Example 214, (2S)-2-[(1S)-2-[2′-(morpholin-4-ylmethyl)biphenyl-4-yl]-1-(2H-tetrazol-5-yl)ethyl]pentanoic acid], the “NDM1 EC30005 MITC95” value in test [1] stood at 7.8 µM. For the same compound, the “VIM1 KP599644 MITC95” value in test [2] was greater than 200 µM. Further, the “IMP1 SM5741 MITC95” value in test [3] came out at 2.0 µM. Also, the half-maximal inhibitory concentration (IC50) on IMP-1 stood at 10 nM; at NDM-1, 24 nM; on VIM-1, 180 nM.
Regarding `CCC[C@H](C(=O)O)[C@H](Cc1ccc(-c2cnn(C)c2)cc1)c1nnn[nH]1` [Example 233, (2S)-2-[(1S)-2-[4-(1-methyl-1H-pyrazol-4-yl)phenyl]-1-(1H-tetrazol-5-yl)ethyl]pentanoic acid], the “NDM1 EC30005 MITC95” value in test [1] is 18.8 µM. For the same compound, the “VIM1 KP599644 MITC95” value in test [2] was 75 µM. Further, the “IMP1 SM5741 MITC95” value in test [3] was found to be 16 µM. In addition, the half-inhibitory concentration (IC50) on IMP-1 came to 52 nM; on NDM-1, 18 nM; on VIM-1, 4 nM.
As to `CCC[C@H](C(=O)O)[C@H](Cc1ccc(-c2ccc3c(c2)CNC3=O)cc1)c1nnn[nH]1` [Example 234, (2S)-2-[(1S)-2-[4-(1-oxo-2,3-dihydro-1H-isoindol-5-yl)phenyl]-1-(1H-tetrazol-5-yl)ethyl]pentanoic acid], the “NDM1 EC30005 MITC95” value in test [1] turned out to be 25 µM. Also, in test [2], the “VIM1 KP599644 MITC95” value was 50 µM. For the same compound, in test [3], the “IMP1 SM5741 MITC95” value was 7.0 µM. Moreover, the IC50 is 56 nM on IMP-1, 17 nM on NDM-1 and 2.9 nM on VIM-1.
